Laboratory results reported in ChEMBL document CHEMBL5346964, “Discovery of LNP1892: A Precision Calcimimetic for the Treatment of Secondary Hyperparathyroidism” (J Med Chem, 2023).

Tests used:
[1] = AUC(0 to t) in human at 25 mg/kg, po administered as single dose; type: ADME, organism-based; parameters: dose 25 mg/kg, route po; details: in vivo
Rattus norvegicus [2] = assay: Acute effect on parathyroid hormone in overnight fasted adenine diet-induced chronic kidney disease Wistar rat model assessed as reduction in plasma PTH level at 10 mg/kg, po measured after 2 hrs of post treatment by sandwich ELISA analysis; type: functional; parameters: scale not given: the % may be the effect or the level left
hERG = hERG (Homo sapiens, UniProt Q12809); assay: Inhibition of hERG at 1 uM relative to control; type: toxicity
Sequence of hERG (Q12809 whole entry): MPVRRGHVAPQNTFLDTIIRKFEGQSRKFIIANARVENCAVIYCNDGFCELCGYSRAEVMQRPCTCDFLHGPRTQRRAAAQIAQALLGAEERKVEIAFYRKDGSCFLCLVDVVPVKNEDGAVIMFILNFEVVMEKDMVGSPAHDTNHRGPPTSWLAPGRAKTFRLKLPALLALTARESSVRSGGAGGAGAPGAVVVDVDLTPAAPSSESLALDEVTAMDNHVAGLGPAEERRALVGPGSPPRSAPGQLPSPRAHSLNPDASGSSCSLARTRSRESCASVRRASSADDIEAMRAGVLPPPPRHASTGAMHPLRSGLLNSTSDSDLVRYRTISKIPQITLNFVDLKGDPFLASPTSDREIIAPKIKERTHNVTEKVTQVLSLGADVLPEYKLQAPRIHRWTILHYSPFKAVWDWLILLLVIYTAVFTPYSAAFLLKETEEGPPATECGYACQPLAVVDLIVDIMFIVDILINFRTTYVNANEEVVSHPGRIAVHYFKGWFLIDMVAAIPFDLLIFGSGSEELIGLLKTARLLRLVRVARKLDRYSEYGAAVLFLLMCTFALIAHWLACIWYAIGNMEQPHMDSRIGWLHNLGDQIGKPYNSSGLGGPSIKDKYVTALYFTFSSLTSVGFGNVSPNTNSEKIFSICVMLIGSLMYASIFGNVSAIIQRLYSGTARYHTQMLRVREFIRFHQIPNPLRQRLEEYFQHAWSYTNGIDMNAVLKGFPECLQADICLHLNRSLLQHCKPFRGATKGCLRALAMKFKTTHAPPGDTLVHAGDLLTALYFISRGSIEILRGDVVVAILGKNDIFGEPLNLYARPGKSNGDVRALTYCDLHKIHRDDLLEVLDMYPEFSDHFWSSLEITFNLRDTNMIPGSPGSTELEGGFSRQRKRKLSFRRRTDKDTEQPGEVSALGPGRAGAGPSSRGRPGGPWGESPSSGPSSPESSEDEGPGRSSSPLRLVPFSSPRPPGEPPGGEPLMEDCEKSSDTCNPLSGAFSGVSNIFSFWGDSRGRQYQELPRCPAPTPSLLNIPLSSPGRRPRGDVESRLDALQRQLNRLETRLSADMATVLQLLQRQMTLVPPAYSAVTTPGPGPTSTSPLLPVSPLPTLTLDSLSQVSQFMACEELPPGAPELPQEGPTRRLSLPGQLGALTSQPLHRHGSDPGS

[3] = Cmax in human at 25 mg/kg, po administered as single dose; type: ADME, organism-based; parameters: dose 25 mg/kg, route po; details: in vivo
Rattus norvegicus [4] = assay: Subchronic effect on parathyroid hormone in overnight fasted adenine diet-induced chronic kidney disease Wistar rat model plasma assessed as reduction in plasma PTH level at 0.1 mg/kg, po qd measured after 27 days of post treatment by sandwich ELISA analysis; type: functional; parameters: scale not given: the % may be the effect or the level left; details: time 27 day
[5] = Effect on parathyroid hormone in overnight fasted Sprague-Dawley rat assessed as reduction in plasma PTH level at 3 mg/kg, po measured after 0.5 hrs of post treatment by sandwich ELISA analysis; type: functional; parameters: scale not given: the % may be the effect or the level left
[6] = Toxicity in monkey assessed as NOAEL; parameters: species or system Macaca mulatta; details: rhesus monkey, in vivo
[7] = Chemical stability of the compound in SIF measured after 0.5 to 4 hrs; type: physicochemical; details: simulated gi fluid; time 0.5-4 hrs
[8] = Tmax in Sprague-Dawley rat at 100 mg/kg; type: ADME, organism-based; details: in vivo
[9] = AUC in mouse at 50 mg/kg per day, po via gavage administered for 13 weeks; type: ADME, organism-based; parameters: dose 50 mg/kg, time 13 weeks, route po; details: in vivo
[10] = Kinetic solubility of compound in FaSSIF upto 500 uM measured after 16 hrs under shaking condition by UV-visible method; type: physicochemical; details: read-out: Kinetic_solubility
Rattus norvegicus [11] = assay: Acute effect on parathyroid hormone in overnight fasted adenine diet-induced chronic kidney disease Wistar rat model assessed as reduction in plasma PTH level at 3 mg/kg, po measured after 4 hrs of post treatment by sandwich ELISA analysis; type: functional; parameters: scale not given: the % may be the effect or the level left
[12] = AUC(0 to t) in human at 25 mg/kg, po administered as multiple dose on day 8; type: ADME, organism-based; parameters: dose 25 mg/kg, route po; details: in vivo
Cytochrome P450 2A6 = target: T1, Cytochrome P450 2A6 (Homo sapiens, UniProt P11509); assay: Inhibition of CYP2A6 in human liver microsomes preincubated for 5 mins followed by NADPH addition by LC-MS/MS analysis; type: ADME, Microsome
T1 sequence (P11509 whole entry): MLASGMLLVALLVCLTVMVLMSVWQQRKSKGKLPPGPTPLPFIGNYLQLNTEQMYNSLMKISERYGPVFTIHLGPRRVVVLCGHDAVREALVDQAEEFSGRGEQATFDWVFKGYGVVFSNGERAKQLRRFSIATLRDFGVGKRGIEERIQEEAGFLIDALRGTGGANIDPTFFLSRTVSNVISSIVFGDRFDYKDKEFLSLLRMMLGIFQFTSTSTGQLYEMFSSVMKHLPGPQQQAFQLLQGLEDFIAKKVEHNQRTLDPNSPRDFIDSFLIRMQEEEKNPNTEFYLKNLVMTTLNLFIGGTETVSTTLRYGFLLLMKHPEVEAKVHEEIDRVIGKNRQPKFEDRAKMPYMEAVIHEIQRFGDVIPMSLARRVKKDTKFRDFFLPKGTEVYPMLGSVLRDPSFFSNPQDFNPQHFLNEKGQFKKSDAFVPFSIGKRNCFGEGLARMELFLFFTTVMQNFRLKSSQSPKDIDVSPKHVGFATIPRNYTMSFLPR

[13] = Kinetic solubility of compound upto 500 uM at pH 2 measured after 16 hrs under shaking condition by UV-visible method; type: physicochemical; details: buffer, read-out: Kinetic_solubility
[14] = Oral bioavailability in Sprague-Dawley rat at 10 mg/kg measured upto 24 hrs by LC/MS-MS analysis; type: ADME, organism-based; details: in vivo
[15] = Kinetic solubility of compound in water upto 500 uM measured after 16 hrs under shaking condition by UV-visible method; type: physicochemical; details: read-out: Kinetic_solubility
[16] = AUC(0 to 24 hrs) in Sprague-Dawley rat at 30 mg/kg; type: ADME, organism-based; parameters: dose 30 mg/kg; details: in vivo
[17] = Metabolic stability in human liver S9 fraction measured upto 60 mins by LC-MS/MS method; type: ADME, subcellular; details: read-out: Stability
[18] = AUC(0 to 24 hrs) in Sprague-Dawley rat at 10 mg/kg; type: ADME, organism-based; parameters: dose 10 mg/kg; details: in vivo
[19] = Effect on parathyroid hormone in overnight fasted Sprague-Dawley rat assessed as reduction in plasma PTH level at 3 mg/kg, po measured after 2 hrs of post treatment by sandwich ELISA analysis; type: functional; parameters: scale not given: the % may be the effect or the level left
[20] = Efflux ratio of apparent permeability across basolateral to apical over apical to basolateral membrane in human Caco-2 cells at 5 uM measured after 120 mins by LC-MS/MS analysis; type: ADME, cell-based
[21] = Stability in monkey plasma measured up to 4 hrs by LC-MS/MS method; type: ADME, cell-free, Macaca mulatta; details: rhesus monkey, read-out: Stability
[22] = Cmax in Sprague-Dawley rat at 10 mg/kg, po administered as solution measured upto 24 hrs by LC-MS/MS analysis; type: ADME, organism-based; parameters: dose 10 mg/kg, time < 24 hrs, route po; details: in vivo
CYP1A2 = target: T2, CYP1A2 (Homo sapiens, UniProt P05177); assay: Inhibition of CYP1A2 in human liver microsomes at 10 uM preincubated for 5 mins followed by NADPH addition by LC-MS/MS analysis relative to control; type: ADME, Microsome
T2 sequence (P05177 whole entry): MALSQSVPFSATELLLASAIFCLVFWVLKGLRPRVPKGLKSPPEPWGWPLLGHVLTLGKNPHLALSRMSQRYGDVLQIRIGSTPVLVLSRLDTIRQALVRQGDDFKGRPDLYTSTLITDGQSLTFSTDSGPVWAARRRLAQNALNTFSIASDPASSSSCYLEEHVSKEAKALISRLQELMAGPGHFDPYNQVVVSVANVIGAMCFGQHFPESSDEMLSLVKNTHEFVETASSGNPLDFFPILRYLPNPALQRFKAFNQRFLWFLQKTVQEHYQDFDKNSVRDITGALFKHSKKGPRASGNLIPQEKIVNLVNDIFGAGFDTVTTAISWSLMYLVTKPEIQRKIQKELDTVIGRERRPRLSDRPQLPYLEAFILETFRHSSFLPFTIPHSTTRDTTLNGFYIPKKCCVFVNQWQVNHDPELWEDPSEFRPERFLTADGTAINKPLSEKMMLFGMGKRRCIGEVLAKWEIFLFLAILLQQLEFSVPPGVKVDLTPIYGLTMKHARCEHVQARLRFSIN

[23] = Effect on parathyroid hormone in overnight fasted Sprague-Dawley rat assessed as reduction in plasma PTH level at 3 mg/kg, po measured after 6 hrs of post treatment by sandwich ELISA analysis; type: functional; parameters: scale not given: the % may be the effect or the level left
[24] = Chemical stability of the compound at pH 7.4 measured after 0.5 to 4 hrs; type: physicochemical; details: buffer, time 0.5-4 hrs
Rattus norvegicus [25] = assay: Chronic effect on parathyroid hormone in overnight fasted adenine diet-induced chronic kidney disease Wistar rat model plasma assessed as reduction in plasma PTH level at 1 mg/kg, po qd measured after 27 days of post treatment by sandwich ELISA analysis; type: functional; parameters: scale not given: the % may be the effect or the level left; details: time 27 day
[26] = Volume of distribution at steady state in cynomolgus monkey at 1 mg/kg, iv measured upto 24 hrs by LC/MS-MS analysis; type: ADME, organism-based, Macaca fascicularis; details: in vivo, read-out: Vdss
[27] = Chemical stability of the compound at pH 2 measured after 0.5 to 4 hrs; type: physicochemical; details: buffer, time 0.5-4 hrs

## Cc1ccc([C@@H]2C[C@H](CN[C@H](C)c3cccc4ccccc34)Oc3ccccc32)cc1C(=O)O.Cl
[1]
  AUC(0-t): 2930 ng·h/mL
Rattus norvegicus [2]
  Activity: 89%
hERG
  inhibition at 1 µM: 1%
[3]
  Cmax: 367 ng/mL
Rattus norvegicus [4]
  Activity: 62%
[5]
  Activity: 100%
[6]
  NOAEL: 50 mg/kg/day
[7]
  Stability: Stable
[8]
  Tmax: 1 h
[9]
  AUC at 2184 h: 321000 ng·h/mL
[10]
  solubility kinetic at 16 h, 500 µM: > 300 µM
Rattus norvegicus [11]
  Activity: 89%
[12]
  AUC(0-t): 5090 ng·h/mL
Cytochrome P450 2A6
  IC50: 41 µM
[13]
  solubility kinetic at 16 h, 500 µM: > 300 µM
[14]
  bioavailability: 99%
[15]
  solubility kinetic at 16 h, 500 µM: > 300 µM
[16]
  AUC(0-t): 116 µM·h
[17]
  remaining at 1 h: > 80%
[18]
  AUC(0-t): 23 µM·h
[19]
  Activity: 100%
[20]
  efflux ratio at 2 h, 5 µM: 0.3
[21]
  remaining at 4 h: > 80%
[22]
  Cmax: 14 µM
CYP1A2
  inhibition at 10 µM: 0%
[23]
  Activity: 18%
[24]
  Stability: Stable
Rattus norvegicus [25]
  Activity: 65%
[26]
  Vd: 20 L/kg
[27]
  Stability: Stable
